“Also recorded” adds a separate entry of the source.
Tests used:
mESCs = conditions: cited from earlier work
[1] = system: cardiomyocytes derived from Id1 overexpressing h9-hESCs; assay: Beat rate of cardiomyocytes measured optically with VF2.1 Cl; assay type: cell-based, human; conditions: 100 nM, compared to vehicle
Experimental: FIG. 3F. Schematic of the workflow for the physiological assessment of cardiomyocytes derived from Id1 overexpressing h9-hESCs using the calcium (Fluo-4) and voltage (VF2.1 Cl)(Miller et al., 2012) sensitive dyes.
Next, experiments were performed to determine whether iMP progenitors are bona fide multipotent cardiovascular progenitors and thus able to differentiate into multiple cardiac lineages including functional cardiomyocytes. To address this question, iMPs were first produced in bulk until day 6 of differentiation for mouse, or day 5 for human. At this point, iMPs could be cryopreserved or used fresh. Spontaneous differentiation potential under basal media conditions without cytokines (FIG. 3A) was assessed by RT-qPCR (FIGS. 3B, 3C) and immunostaining (FIG. 3D and FIGS. 9A, 9B) at day 15 of differentiation. […] Although iMPs are multipotent progenitors, the vast majority of the cells (˜70%) spontaneously differentiate into ACTC1^+ cardiomyocytes in hESCs (FIG. 3E). Next, we assessed whether resulting ACTC1^+ cells show characteristics of functional cardiomyocytes, which include the ability to contract, display intracellular calcium oscillations and action potentials, and respond to hormonal stimuli (Birket et al., 2015; Burridge et al., 2014).

SMILES | Id1 transcripts (mESCs) | beat rate [1]
NC(=O)c1ccc(-c2nc(-c3ccc4c(c3)OCO4)c(-c3ccccn3)[nH]2)cc1 [SB431542] | upregulate Id1 transcripts | 
CC(C)NCC(O)c1ccc(O)c(O)c1 (centres unmarked) [isoproterenol] |  | increased beat rate; also recorded: increase in beating frequency

Source: patent US11821003B2, “Cardiogenic mesoderm formation regulators” (Sanford Burnham Prebys Medical Discovery Institute, priority 2017, dated 2023)
